For the assay, the target named is T1, DNA polymerase theta (POLQ) (2-894).
T1 construct: 2-894
In words: ATPase Assay. As to the method:
POLθ-mediated ATP hydrolysis was measured using the ADP-Glo Kinase Assay (Promega Corporation, Madison, WI). Reactions were performed in white 384-well small-volume microplates (Greiner Bio-One, Frickenhausen, Germany) using a total volume of 15 μL. The ATPase reaction consisted of 1 nM biotinylated Avi-POLθ[2-894], 5 nM of a 50 nucleotide poly-thymine repeat single-stranded DNA (PolyT(50) ssDNA), and 100 μM ATP in 5 μL of assay buffer (50 mM Tris, pH 7.5, 80 mM KCl, 10 MgCl2, 1 mM DTT, 5% glycerol, 0.01% BSA, 0.01% Tween-20). Inhibition of POLΘATPase activity was determined by preparing 11-point serial dilutions of the test compounds in 100% DMSO, then transferring 30 nL of the compounds into the ATPase reaction using an Echo acoustic liquid handler (Beckman Coulter, Brea, CA). DMSO-treated wells containing either all of the reaction components (1 nM biotinylated Avi-POLθ[2-894], 5 nM PolyT(50) ssDNA, 100 μM ATP) or with assay buffer substituted for the biotinylated Avi-POLθ[2-894](0 nM biotinylated Avi-POLθ[2-894], 5 nM PolyT(50) ssDNA, 100 μM ATP) were used to define the maximum and minimum response in the assay. Following a one-hour incubation at ambient temperature, 5 μL of ADP-Glo Reagent was added to the ATPase reaction, and this mixture was allowed to incubate at ambient temperature for an additional hour. Lastly, 5 μL of Kinase Detection Reagent was added, followed by a third one-hour incubation at ambient temperature. The reagent concentrations listed represent the amounts only in the 5 μL ATPase reaction volume.
A word on the IC50: it is the concentration at which inhibition is half-maximal. The low end stands for greater potency, the high end for weaker potency. In turn, `COc1cnc(Cl)cc1-c1cc(C)ncc1C(=O)Nc1nc2c(s1)CN(C(=O)c1c(C#N)cnn1C)C2` [US20250230171, Compound 515] came in with an IC50 of 8 nM.

Regarding `COc1cnc(Cl)cc1-c1cc(C)ncc1C(=O)Nc1nc2c(s1)CN(C(=O)c1ncccc1Cl)C2` [US20250230171, Compound 459], 8 nM corresponded to half-maximal inhibition (IC50).

In the case of `COc1cnc(Cl)cc1-c1cc(C)ncc1C(=O)Nc1nc2c(s1)CN(C(=O)c1cnc(C(F)F)c(Cl)c1)C2` [US20250230171, Compound 445], the IC50 came out at 8 nM.

Regarding `COc1cnc(Cl)cc1-c1cc(C)ncc1C(=O)Nc1nc2c(s1)CN(C(=O)c1cccn3cncc13)C2` [US20250230171, Compound 462], inhibition was half-maximal at 8 nM (IC50).

Turning to `COc1ccc(C#N)cc1-c1cc(C)ncc1C(=O)Nc1nc2c(s1)CN(C(=O)c1ccc(C(F)F)cc1)C2` [US20250230171, Compound 438], the IC50 is 8 nM.

The compound `COc1cnc(Cl)cc1-c1cc(C)ncc1C(=O)Nc1nc2c(s1)CN(C(=O)c1cc(C)nc(C(F)F)n1)C2` [US20250230171, Compound 530] gave an IC50 of 8 nM.

As for `COc1cnc(Cl)cc1-c1cc(C)ncc1C(=O)Nc1nc2c(s1)CN(C(=O)c1nc(C(F)F)ccc1OC)C2` [US20250230171, Compound 415], the IC50 was determined as 8 nM.

As for `COc1cnc(Cl)cc1-c1cc(C)ncc1C(=O)Nc1nc2c(s1)CN(C(=O)c1nccc(C(F)(F)F)n1)C2` [US20250230171, Compound 431], the IC50 was 8 nM.

`COc1cnc(Cl)cc1-c1cc(C)ncc1C(=O)Nc1nc2c(s1)CN(C(=O)c1nccnc1OC)C2` [US20250230171, Compound 437]: the IC50 came to 8 nM.

Turning to `COc1ccc(C#N)cc1-c1cc(C)ncc1C(=O)Nc1nc2c(s1)CN(C(=O)c1cccc(Cl)c1OC)C2` [US20250230171, Compound 422], 8 nM corresponded to half-maximal inhibition (IC50).

With `COc1ncc(C#N)cc1-c1cc(C)ncc1C(=O)Nc1nc2c(s1)CN(C(=O)c1ccc(C(F)F)cn1)C2` [US20250230171, Compound 540], inhibition was half-maximal at 32.5 nM (IC50).

In the case of `COc1cnc(Cl)cc1-c1cc(C)ncc1C(=O)Nc1nc2c(s1)CN(C(=O)c1c(Cl)c(C)nn1C)C2` [US20250230171, Compound 408], the half-inhibitory concentration (IC50) is 8 nM.

Turning to `COc1cnc(Cl)cc1-c1cc(C)ncc1C(=O)Nc1nc2c(s1)CN(C(=O)c1ccc(C(F)F)cc1F)C2` [US20250230171, Compound 382], the IC50 turned out to be 8 nM.

Compound `COc1ccc2oc(C(=O)N3Cc4nc(NC(=O)c5cnc(C)cc5-c5cc(Cl)ncc5OC)sc4C3)nc2c1` [US20250230171, Compound 472] registered an IC50 of 8 nM.

Turning to `COc1cnc(Cl)cc1-c1cc(C)ncc1C(=O)Nc1nc2c(s1)CN(C(=O)c1nc(C)ncc1OC)C2` [US20250230171, Compound 493], half-maximal inhibition (IC50) required 8 nM.

As for `COc1cnc(Cl)cc1-c1cc(C)ncc1C(=O)Nc1nc2c(s1)CN(C(=O)c1c(C)ncn1C)C2` [US20250230171, Compound 476], the IC50 was 8 nM.

The compound `COc1cnc(Cl)cc1-c1cc(C)ncc1C(=O)Nc1nc2c(s1)CN(C(=O)c1cccc(C)n1)C2` [US20250230171, Compound 497] had an IC50 of 8 nM.

Consider `COc1cnc(Cl)cc1-c1cc(C)ncc1C(=O)Nc1nc2c(s1)CN(C(=O)c1ccc(C(F)F)c(F)c1)C2` [US20250230171, Compound 403], for which the midpoint of inhibition, the IC50, lay at 8 nM.

Compound `COc1cnc(Cl)cc1-c1cc(C)ncc1C(=O)Nc1nc2c(s1)CN(C(=O)c1nc(C)cn1C)C2` [US20250230171, Compound 543] displayed an IC50 of 32.5 nM.

The compound `COc1ccc(C#N)cc1-c1cc(C)ncc1C(=O)Nc1nc2c(s1)CN(C(=O)c1cc(C(F)F)ccc1F)C2` [US20250230171, Compound 433] yielded an IC50 of 8 nM.

`COc1cnc(Cl)cc1-c1cc(C)ncc1C(=O)Nc1nc2c(s1)CN(C(=O)c1cncc(C(F)F)n1)C2` [US20250230171, Compound 541] registered an IC50 of 32.5 nM.

On to `COc1cnc(Cl)cc1-c1cc(C)ncc1C(=O)Nc1nc2c(s1)CN(C(=O)c1cnc(C)c(C)n1)C2` [US20250230171, Compound 416], for which inhibition was half-maximal at 8 nM (IC50).

For `COc1cnc(Cl)cc1-c1cc(C)ncc1C(=O)Nc1nc2c(s1)CN(C(=O)c1cnc(C)n1C)C2` [US20250230171, Compound 546], the IC50 was found to be 100 nM.

On to `COc1cnc(Cl)cc1-c1cc(C)ncc1C(=O)Nc1nc2c(s1)CN(C(=O)C1CC3(CC(OC(F)F)C3)C1)C2` (stereo not given) [US20250230171, Compound 456], for which inhibition was half-maximal at 8 nM (IC50).

Compound `COc1cnc(Cl)cc1-c1cc(C)ncc1C(=O)Nc1nc2c(s1)CN(C(=O)c1cccnc1Cl)C2` [US20250230171, Compound 524] came in with an IC50 of 8 nM.

With `COc1cnc(Cl)cc1-c1cc(C)ncc1C(=O)Nc1nc2c(s1)CN(C(=O)c1ccc(C(F)F)nc1OC)C2` [US20250230171, Compound 384], the IC50 stood at 8 nM.

`COc1ccc(C#N)cc1-c1cc(C)ncc1C(=O)Nc1nc2c(s1)CN(C(=O)c1cccc(C(F)F)n1)C2` [US20250230171, Compound 538] registered an IC50 of 32.5 nM.

In the case of `COc1cnc(Cl)cc1-c1cc(C)ncc1C(=O)Nc1nc2c(s1)CN(C(=O)c1nccnc1C)C2` [US20250230171, Compound 520], the IC50 turned out to be 8 nM.

In the case of `COc1cnc(Cl)cc1-c1cc(C)ncc1C(=O)Nc1nc2c(s1)CN(C(=O)C1CC13CC3)C2` (racemic) [US20250230171, Compound 535], half-maximal inhibition (IC50) required 32.5 nM.

`COc1cc(Cl)ccc1C(=O)N1Cc2nc(NC(=O)c3cnc(C)cc3-c3cc(C#N)ccc3OC)sc2C1` [US20250230171, Compound 467] showed an IC50 of 8 nM.

For the compound `COc1ncc(Cl)c(C(=O)N2Cc3nc(NC(=O)c4cnc(C)cc4-c4cc(Cl)ncc4OC)sc3C2)n1` [US20250230171, Compound 481], the IC50 was determined as 8 nM.

On to `COc1cnc(Cl)cc1-c1cc(C)ncc1C(=O)Nc1nc2c(s1)CN(C(=O)c1ncc(C(F)F)cc1OC)C2` [US20250230171, Compound 412], for which half-maximal inhibition (IC50) was put at 8 nM.

For `COc1cnc(Cl)cc1-c1cc(C)ncc1C(=O)Nc1nc2c(s1)CN(C(=O)c1cccc3nccn13)C2` [US20250230171, Compound 455], the IC50 stood at 8 nM.

The compound `COc1cnc(Cl)cc1-c1cc(C)ncc1C(=O)Nc1nc2c(s1)CN(C(=O)C1CC3(CC(C#N)C3)C1)C2` (stereo not given) [US20250230171, Compound 532] registered an IC50 of 8 nM.

`COc1cnc(Cl)cc1-c1cc(C)ncc1C(=O)Nc1nc2c(s1)CN(C(=O)c1ccc(C(F)F)c(Cl)c1)C2` [US20250230171, Compound 381] showed an IC50 of 8 nM.

Compound `COc1cnc(Cl)cc1-c1cc(C)ncc1C(=O)Nc1nc2c(s1)CN(S(=O)(=O)c1ccccn1)C2` [US20250230171, Compound 507] showed an IC50 of 8 nM.

Consider `COc1cnc(Cl)cc1-c1cc(C)ncc1C(=O)Nc1nc2c(s1)CN(C(=O)c1ncc(C(F)F)cn1)C2` [US20250230171, Compound 400], for which half-maximal inhibition (IC50) was put at 8 nM.

The compound `COc1cnc(Cl)cc1-c1cc(C)ncc1C(=O)Nc1nc2c(s1)CN(C(=O)c1cnc(C(F)(F)F)nc1C)C2` [US20250230171, Compound 477] had an IC50 of 8 nM.

The compound `COc1cnc(Cl)cc1-c1cc(C)ncc1C(=O)Nc1nc2c(s1)CN(C(=O)c1nc(C)ccc1Cl)C2` [US20250230171, Compound 498] yielded an IC50 of 8 nM.

Turning to `COc1cnc(Cl)cc1-c1cc(C)ncc1C(=O)Nc1nc2c(s1)CN(C(=O)c1cnc(OC)c(C(F)F)n1)C2` [US20250230171, Compound 531], 8 nM corresponded to half-maximal inhibition (IC50).

Values taken from BindingDB's records for patent US20250230171 (Moma Therapeutics, 2025).
